This note sets out measurements from US10392373B2, “Oxazole derivatives that inhibit Syk” (AB Science, priority 2015, dated 2019).

Structures are written as SMILES.

The target in the test is T1, SYK kinase (Homo sapiens, UniProt P43405).
T1 construct: SYK kinase was purified as a full length protein in a baculovirus system near homogeneity; made in house
Briefly: In vitro Syk inhibition assay (Kinase TK HTRF, Cisbio). Type of test: biochemical. The following applies: full length SYK purified from a baculovirus system; ATP at least twice the Km; room temperature; average of triplicate; read-out: IC50: Concentration inhibiting 50% of protein kinase. The method, then: Protocol Inhibition Assays.
SYK kinase was purified as a full length protein in a baculovirus system near homogeneity. All kinase assays were performed with the Kinase TK (tyrosine kinase) HTRF (Homogeneous Time Resolved Fluorescence) assay developed by Cisbio international. These assays were carried out at room temperature in 96-wells half-area white plates in a final volume of 25 μl of kinase buffer (10 mM MgCl2; 2 mM MnCl2; 50 mM Sodium-HEPES pH 7.8; BRIJ-35 0.01%, 1 μM substrate) containing ATP at a concentration of at least twice the Km for each enzyme and an appropriate amount of recombinant enzyme to ensure a linear reaction rate. Reactions were initiated upon introduction of the enzyme and terminated with the addition of one reaction volume (25 μl) of HTRF detection buffer. Plates were incubated for one hour at room temperature and the time resolved Fluorescence resonance energy transfer signal was measured in a Pherastar FS microplate reader (BMG Labtech). All data are the average of triplicate results with a standard deviation <10%.
For orientation: Time-resolved FRET reads energy transfer from a long-lived donor to a nearby acceptor.
For the compound `Cc1ccnc(Nc2cc(CN3CCCC3)cc(-c3cnc(N4CCNC(=O)C4(C)C)o3)c2)n1` [Compound 045, 3,3-Dimethyl-4-{5-[3-(4-methyl-pyrimidin-2-ylamino)-5-pyrrolidin-1-ylmethyl-phenyl]-oxazol-2-yl}-piperazin-2-one], the IC50 fell in the range of 100 to 1000 nM.
The figure for `CC1C(=O)NCCN1c1ncc(-c2cccc(Nc3nccc(C(F)(F)F)n3)c2)o1` (stereo not drawn) [Compound 009, 3-Methyl-4-{5-[3-((4-trifluoromethyl)-pyrimidin-2-ylamino)-phenyl]-oxazol-2-yl}-piperazin-2-one] is no more than 100 nM; for `CC(C)c1ccnc(Nc2cccc(-c3cnc(N4CCNC(=O)C4C)o3)c2)n1` (stereo not drawn) [Compound 021, 4-{5-[3-(4-Isopropyl-pyrimidin-2-ylamino)-phenyl]-oxazol-2-yl}-3-methyl-piperazin-2-one] it is no more than 100 nM; for `Cc1ccnc(Nc2cc(CN3CCOCC3)cc(-c3cnc(N4CCNC(=O)C4(C)C)o3)c2)n1` [Compound 005, 3,3-Dimethyl-4-{5-[3-(4-methyl-pyrimidin-2-ylamino)-5-morpholin-4-ylmethyl-phenyl]-oxazol-2-yl}-piperazin-2-one] it is no more than 100 nM.
With `CC1C(=O)NCCN1c1ncc(-c2cccc(Nc3nccc(N4CCOCC4)n3)c2)o1` (stereo not drawn) [Compound 027, 3-Methyl-4-{5-[3-(4-morpholin-4-yl-pyrimidin-2-ylamino)-phenyl]-oxazol-2-yl}-piperazin-2-one], the IC50 lay in the range of 100 to 1000 nM.
The figure for `CC1(C)C(=O)NCCN1c1ncc(-c2cccc(Nc3nccc(N4CCOCC4)n3)c2)o1` [Compound 030, 3,3-Dimethyl-4-{5-[3-(4-morpholin-4-yl-pyrimidin-2-ylamino)-phenyl]-oxazol-2-yl}-piperazin-2-one] is 100 to 1000 nM; for `CCc1ccnc(Nc2cccc(-c3cnc(N4CCNC(=O)C4(C)C)o3)c2)n1` [Compound 037, 4-{5-[3-(4-Ethyl-pyrimidin-2-ylamino)-phenyl]-oxazol-2-yl}-3,3-dimethyl-piperazin-2-one] it is no more than 100 nM.
The figure for `CCC1C(=O)NCCN1c1ncc(-c2cccc(Nc3nccc(C)n3)c2)o1` (stereo not drawn) [Compound 020, 3-Ethyl-4-{5-[3-(4-methyl-pyrimidin-2-ylamino)-phenyl]-oxazol-2-yl}-piperazin-2-one] is no more than 100 nM; for `Cc1ccnc(Nc2cccc(-c3cnc(N4CCNC(=O)[C@H]4C(C)C)o3)c2)n1` [Compound 040, (R)-3-Isopropyl-4-{5-[3-(4-methyl-pyrimidin-2-ylamino)-phenyl]-oxazol-2-yl}-piperazin-2-one] it is no more than 100 nM; for `CCC1C(=O)NCCN1c1ncc(-c2cccc(Nc3nccc(C(F)(F)F)n3)c2)o1` (stereo not drawn) [Compound 011, 3-Ethyl-4-{5-[3-((4-trifluoromethyl)-pyrimidin-2-ylamino)-phenyl]-oxazol-2-yl}-piperazin-2-one] it is no more than 100 nM.
Regarding `CC(C)C1C(=O)NCCN1c1ncc(-c2cccc(Nc3nccc(C(F)(F)F)n3)c2)o1` (stereo not drawn) [Compound 012, 3-Isopropyl-4-{5-[3-((4-trifluoromethyl)-pyrimidin-2-ylamino)-phenyl]-oxazol-2-yl}-piperazin-2-one], the IC50 is no more than 100 nM.
As for `CC(C)C1C(=O)NCCN1c1ncc(-c2cccc(Nc3nccc(N4CCCC4)n3)c2)o1` (stereo not drawn) [Compound 034, 3-Isopropyl-4-{5-[3-(4-pyrrolidin-1-yl-pyrimidin-2-ylamino)-phenyl]-oxazol-2-yl}-piperazin-2-one], the IC50 was in the range of 1000 to 10000 nM.
